Entries after “also recorded” stand apart in the source; their conditions may differ.

The IC50 is the point on the concentration scale where inhibition reaches its midpoint.

One data set deals with aged SAMP mice. The note with it: mouse, in vivo; cited from earlier work.
In data set [1] the test system is F2-IsoPs esterified in the kidney. In words: Galactosamine treated rats (hepatorenal syndrome model), F2-IsoPs esterified in the kidney. The format is in vivo, rat. The settings on record: 1 g/L drinking water. From the text:
Another antioxidant of the present invention is lipoic acid. […] Dihydrolipoic acid is a dithiol. As mentioned previously, thiols reduce the endoperoxide intermediates in the IsoP pathway in vivo to F2-IsoPs. Reducing the endoperoxides concomitantly therefore reduces the formation of endoperoxide rearrangement products, one of which is the IsoKs (FIG. 28). Therefore, mechanistically lipoic acid is an antioxidant to test in animal models of AD. It is also an antioxidant to test because it is available over the counter for human use.

The next data set relates to proteasome. Nature of the data set: Hydrolysis of fluorogenic substrate VKM-amc by proteasome containing cell lysates. The class given is biochemical. The settings on record: equimolar adduction of VKM-amc.
Data set [2] addresses human cardiac Na channel (hH1, or SCN5A) (Homo sapiens, UniProt Q14524). In words: Whole-cell Na current recording, wild-type hH1 expressed in HEK-293 cells. The settings on record: HEK-293; t-BHP 1 mM, Iso-K 10 μM, flecainide 1 μM.
The target of a further data set is ovalbumin (OVA) (Gallus gallus, UniProt P01012). In words: Protein cross-linking after incubation with ovalbumin. The class given is biochemical. The settings on record: 10 molar equivalents, about 4 hours. From the text: The above findings explained why repeated attempts in the past to detect free IsoKs during oxidation of biological systems in vitro, e.g. microsomes, and in animal models of oxidant injury in vivo were unsuccessful because they are rapidly sequestered as protein adducts. Therefore, the present inventors undertook to determine the identity of IsoK lysyl adducts as a basis for development of methodology to detect IsoK and NeuroK adducts in biological tissues in their adducted form. […] Reversible Schiff base adducts were also identified. Schiff base adducts are formed rapidly and then decline over time, whereas lactam adducts accumulate slowly over time. Lysyl protein adducts of IsoKs and NeuroKs are analyzed by LC/MS/MS following enzymatic digestion of proteins to individual amino acids. Enzymatic digestion of proteins is necessary because the adducts degrade during acid hydrolysis. However, this analysis is further complicated by the proclivity of IsoKs and NKs to induce protein crosslinking, which is resistant to hydrolysis. […] This is a dramatic example of the differential effects of IsoKs/NKs and HNE on protein adduction and cross-linking.
Sequence of ovalbumin (OVA) (P01012 whole entry, species assumed): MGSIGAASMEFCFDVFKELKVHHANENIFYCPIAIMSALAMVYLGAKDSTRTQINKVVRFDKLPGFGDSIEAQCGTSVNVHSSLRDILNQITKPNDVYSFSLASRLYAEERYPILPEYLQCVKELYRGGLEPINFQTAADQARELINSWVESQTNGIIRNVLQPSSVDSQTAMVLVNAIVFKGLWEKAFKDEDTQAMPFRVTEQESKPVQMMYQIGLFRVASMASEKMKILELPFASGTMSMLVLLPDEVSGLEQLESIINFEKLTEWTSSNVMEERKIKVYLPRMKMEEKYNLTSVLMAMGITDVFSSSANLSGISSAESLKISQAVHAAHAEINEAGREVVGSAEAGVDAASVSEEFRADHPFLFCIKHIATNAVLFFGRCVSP

The next data set has as its target bovine serum albumin (Bos taurus, UniProt P02769). Nature of the data set: Disappearance of free IsoK and HNE during incubation with bovine serum albumin (rate of adduction). The format is biochemical. The settings on record: after 80 minutes. The protocol: Oxidation of AA in vitro produces both F2-IsoPs and IsoKs in nearly equivalent amounts. However, comparison of the formation of F2-IsoPs and IsoKs in vivo is more complex, because IsoKs rapidly adduct to lysyl residues on proteins. […] In striking contrast, approximately 50% of the HNE still remained in free form after 80 minutes.

Data set [3] is described as follows: Lipophilicity / penetration into nonpolar environments. The format is physicochemical.
The subject of another data set is HepG2 cell. Nature of the data set: Cellular viability of HepG2 cells exposed to hydrogen peroxide. The class given is cell-based.
In data set [4] the test system is mice subjected to ligation of the left anterior coronary artery. Nature of the data set: Myocardial infarction by coronary ligation in mice. The class given is in vivo, mouse. The source says:
(§1) In a series of experiments, the present inventors have tested the effect of the γ KA scavenger salicylamine (SA) in mice subjected to ligation of the left anterior coronary artery resulting in a myocardial infarction. All experiments were done in blinded fashion regarding the treatment group (SA versus placebo (water)). Mice received drinking water containing either SA (1 g/l) or no drug for three days prior to coronary ligation and for 7 days afterwards.
The present inventors examined the effect of SA treatment on Lys-lactam protein adduct formation. Mouse hearts were harvested 7 days after coronary ligation and the atria and the right ventricular free wall were removed. The remainder of each heart (LV free wall and septum) was then cut into two, roughly equal tissue specimens of ˜50 mg wet weight: The anterior-apical part contained the infarct and the peri-infarct border zone (MI+borderzone), and the posterior-basal part was unaffected (Remote). The tissue content of Lys-lactam protein adducts was quantified using our LC MS^2 based analytical technique.

Data set [5] can be described thus: SA in the drinking water of mice: concentrations and tolerability. The format is in vivo, C57BL6 mice. How it is done: as §1
SA was tested to determine whether it could be used in vivo. 1 g/L or 5 g/L salicylamine was added to the drinking water of C57BL6 mice for 5 days and then harvested plasma and liver from the animals. SA was measured by monitoring absorption at 259 nm after derivatization with 1,1′-thiocarbonyldiimidazole.

Data set [6] is described as follows: Oxidation of arachidonic acid in the presence of scavenger and 10 molar excess of lysine. The class given is biochemical. The source says: The amounts of each of these adducts to the amount of γ KA adduct formed were normalized. […] Because cardiac ion channels are embedded in cellular membranes, the ability to penetrate into membranes is critical.
The nature of data set [7]: Second order rate of pyrrole formation with the model γ-ketoaldehyde 4-oxopentanal. The class given is biochemical. How it is done: The present inventors determined the approximate second order rate constants of different amines for pyrrole formation with […], a γ-ketoaldehyde.
These compounds are tested for the rate of pyrrole formation when incubated with the γ-ketoaldehyde, 4-oxopentanal. […] Ehrlich reagent may be used to detect levels of pyrroles.
All rates are shown relative to N-α-acetyl-lysine.

The test system of data set [8] is transgenic humanized apoE4 mice (hApoE4). Nature of the data set: Water radial arm maze in transgenic humanized apoE4 mice. The class given is in vivo, mouse. The arrangement: dose or concentration left out as unconfirmed. The note with it: water containing SA, six months, tested at 12 months of age. The source says: Starting at six months of age, wild-type (C57) and transgenic humanized apoE4 mice (hApoE4) were given either standard water or water containing […] SA (+SA) as their only source of drinking water. At this time, animals were also switched from standard chow diets to either a sufficient amino acid based diet (suff) or an amino-acid based diet insufficient in choline, methionine, and folate, and enriched in homocysteine (HC). All animals were fed diets and drinking water for six months (to 12 months of age) prior to testing. The purpose of the HC diet was to attempt to exacerbate oxidative stress in these animals. Because breeding and behavioral testing is extremely time consuming, it was not possible to have sufficient animals for each group in a single cohort and still perform adequate behavioral testing. Therefore two separate cohorts of animals (A & B) were raised and tested about two month apart. […]
The water radial arm maze test requires a mouse to find a hidden platform placed in one of six maze arms. […] If the mouse enters an arm without the platform, an error is scored and the mouse is dragged by the tail back to the start arm and released. […] If a mouse swims in the central area for 12 sec without picking an arm, an error is also scored and the animal is dragged back to the start arm and released. […]

Data set [9] relates to plasma concentrations of F2-IsoPs. Nature of the data set: Porcine model of global ischemia/reperfusion (cardiac arrest and CPR), plasma F2-IsoPs. The format is in vivo. The note with it: 30 mg/kg intravenous, single dose during CPR. The protocol:
The present inventors chose antioxidants to test in the models of AD that we have found effective in suppressing oxidative stress in other animal models of oxidative injury. One model of oxidative injury is the porcine model of global ischemia/reperfusion resulting from induction of cardiac arrest for 3 mins followed by cardiopulmonary resuscitation (CPR). Shown in FIG. 25 are results using this model. As shown, cardiac arrest followed by CPR induced a dramatic increase in plasma concentrations of F2-IsoPs. […] This study involved the administration of a single dose of Tempol. Shown in FIG. 26 is data taken from a report from Ortiz, et. al. in which they assessed the ability of chronic oral administration of TEMPOL (1 mM in the drinking water) to suppress the increase in F2-IsoPs induced by chronic IV infusion of angiotensin II. […] Tempol is one of the antioxidants of the present invention.

In data set [10] the test system is F2-IsoPs in renal vein plasma. The settings on record: 1 mM in the drinking water, chronic oral; cited from earlier work.
For a further data set, the target named is 20S proteasome (Homo sapiens, UniProt P28074). Nature of the data set: Inhibition of 20S proteasome chymotrypsin-like activity (LLVY-amc hydrolysis). The format is biochemical.
Another data set deals with progression of AD. The note with it: 2000 I.U./d; cited from earlier work.
The subject of data set [11] is plasma concentrations of F2-IsoPs. Nature of the data set: Vitamin E supplementation, plasma F2-IsoPs in subjects with hypercholesterolemia. The format is in vivo, human. How it is done: The use of antioxidants to suppress oxidative injury: An important aspect of antioxidant clinical trials that has not received sufficient attention until recently, is the scientific rational for the choice of a particular antioxidant to test, the dose to test, and the duration of treatment. […] This was a key finding because the literature is abound with studies in which have vitamin E was administered for less than 10 weeks to determine its effects on some pathologic process. […] This is an important finding because many studies of the effects of vitamin E have used doses of 400 I.U./d and observed no benefit.

Sequence of human cardiac Na channel (hH1, or SCN5A) (Q14524 whole entry): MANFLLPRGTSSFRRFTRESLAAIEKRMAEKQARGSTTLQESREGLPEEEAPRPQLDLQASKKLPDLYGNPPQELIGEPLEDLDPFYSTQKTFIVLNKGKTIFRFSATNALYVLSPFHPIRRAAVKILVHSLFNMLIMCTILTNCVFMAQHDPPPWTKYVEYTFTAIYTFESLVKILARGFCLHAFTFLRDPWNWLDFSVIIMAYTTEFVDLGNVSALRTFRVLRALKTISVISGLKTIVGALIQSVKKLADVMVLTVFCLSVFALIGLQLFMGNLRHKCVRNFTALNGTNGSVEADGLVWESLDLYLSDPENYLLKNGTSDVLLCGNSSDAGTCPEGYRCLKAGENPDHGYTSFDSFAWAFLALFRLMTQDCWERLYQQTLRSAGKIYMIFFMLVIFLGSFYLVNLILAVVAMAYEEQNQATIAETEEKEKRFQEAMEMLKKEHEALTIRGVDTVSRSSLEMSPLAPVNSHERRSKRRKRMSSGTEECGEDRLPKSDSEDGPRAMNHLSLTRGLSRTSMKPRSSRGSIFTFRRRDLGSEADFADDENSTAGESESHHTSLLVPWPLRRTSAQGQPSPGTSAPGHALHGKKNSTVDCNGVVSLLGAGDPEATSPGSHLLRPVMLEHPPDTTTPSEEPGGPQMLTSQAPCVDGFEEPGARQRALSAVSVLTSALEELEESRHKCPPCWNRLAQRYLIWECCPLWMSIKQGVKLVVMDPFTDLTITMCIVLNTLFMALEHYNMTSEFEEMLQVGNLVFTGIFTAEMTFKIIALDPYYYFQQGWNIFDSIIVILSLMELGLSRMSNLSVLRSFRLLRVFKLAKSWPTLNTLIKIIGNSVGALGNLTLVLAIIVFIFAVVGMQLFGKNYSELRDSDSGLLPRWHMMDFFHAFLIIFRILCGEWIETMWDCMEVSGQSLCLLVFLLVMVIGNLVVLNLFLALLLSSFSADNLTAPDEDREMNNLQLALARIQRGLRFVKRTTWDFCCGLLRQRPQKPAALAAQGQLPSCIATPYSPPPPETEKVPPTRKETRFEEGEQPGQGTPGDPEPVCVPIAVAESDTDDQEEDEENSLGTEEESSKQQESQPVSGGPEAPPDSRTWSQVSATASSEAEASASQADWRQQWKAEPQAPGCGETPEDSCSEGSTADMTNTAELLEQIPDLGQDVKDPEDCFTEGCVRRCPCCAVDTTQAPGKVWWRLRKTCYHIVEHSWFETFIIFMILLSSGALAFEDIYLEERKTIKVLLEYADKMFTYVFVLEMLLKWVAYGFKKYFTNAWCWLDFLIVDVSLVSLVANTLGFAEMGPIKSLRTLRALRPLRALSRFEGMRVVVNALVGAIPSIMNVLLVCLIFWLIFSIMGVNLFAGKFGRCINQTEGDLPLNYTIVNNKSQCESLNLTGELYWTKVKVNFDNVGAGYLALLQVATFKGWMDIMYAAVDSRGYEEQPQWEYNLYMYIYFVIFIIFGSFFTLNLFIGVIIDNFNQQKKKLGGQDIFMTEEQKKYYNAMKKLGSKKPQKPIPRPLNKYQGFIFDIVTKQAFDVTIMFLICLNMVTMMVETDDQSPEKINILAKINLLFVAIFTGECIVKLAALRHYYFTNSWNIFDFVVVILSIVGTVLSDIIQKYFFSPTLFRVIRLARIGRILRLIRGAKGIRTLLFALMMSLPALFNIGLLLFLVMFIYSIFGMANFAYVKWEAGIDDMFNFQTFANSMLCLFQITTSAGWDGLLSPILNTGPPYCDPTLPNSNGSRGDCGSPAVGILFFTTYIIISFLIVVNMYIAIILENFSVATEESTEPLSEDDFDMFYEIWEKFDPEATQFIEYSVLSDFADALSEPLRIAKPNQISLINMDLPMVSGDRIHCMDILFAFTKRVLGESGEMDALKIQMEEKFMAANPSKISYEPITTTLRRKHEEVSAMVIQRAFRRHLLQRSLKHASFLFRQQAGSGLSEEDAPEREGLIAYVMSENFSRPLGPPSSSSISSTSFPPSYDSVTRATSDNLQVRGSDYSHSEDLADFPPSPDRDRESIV
Sequence of bovine serum albumin (P02769 25-607): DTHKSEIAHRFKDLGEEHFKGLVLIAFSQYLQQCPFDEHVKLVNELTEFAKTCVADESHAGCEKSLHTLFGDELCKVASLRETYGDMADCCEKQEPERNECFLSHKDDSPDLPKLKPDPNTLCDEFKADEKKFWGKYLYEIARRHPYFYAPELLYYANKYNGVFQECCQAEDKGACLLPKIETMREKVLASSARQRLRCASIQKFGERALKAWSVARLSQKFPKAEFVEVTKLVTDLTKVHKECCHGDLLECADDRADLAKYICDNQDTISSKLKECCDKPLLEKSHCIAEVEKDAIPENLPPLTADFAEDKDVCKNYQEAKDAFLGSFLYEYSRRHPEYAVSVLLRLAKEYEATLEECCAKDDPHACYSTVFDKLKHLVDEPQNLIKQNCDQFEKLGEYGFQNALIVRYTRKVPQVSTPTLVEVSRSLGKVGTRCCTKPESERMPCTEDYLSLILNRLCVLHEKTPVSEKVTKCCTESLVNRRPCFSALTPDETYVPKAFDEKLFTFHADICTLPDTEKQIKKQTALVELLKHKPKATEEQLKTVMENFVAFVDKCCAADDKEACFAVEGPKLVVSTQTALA
Text for 20S proteasome: Because nondegradable substrates often act as competitive inhibitors, the inventors tested whether E2-IsoK adducted proteins would inhibit proteasome chymotrypsin-like activity as measured by hydrolysis of a fluorogenic substrate, LLVY-amc.

On to `O=C(O)CCCC[C@@H]1CCSS1` (racemic) [lipoic acid], for which the cognitive impairment entry with aged SAMP mice is listed as “effective in improving cognitive impairment”. In addition, the “increase in F2-IsoPs esterified in the kidney” value in data set [1] is listed as “completely suppressed to below control levels”.

Consider `CCCCCC(O)/C=C/C=O` (stereo not shown) [HNE, 4-hydroxynonenal], for which, in the data set with proteasome, the “hydrolysis of the adducted peptide by proteasome containing cell lysates” value is given as “no effect on hydrolysis”. Besides, in [2], the “V1/2 voltage-dependence of inactivation (availability)” value is recorded as −83.7±2.1 mV. Besides, on ovalbumin (OVA), the cross-linking of ovalbumin result is on record as “no cross-linking was observed”. In addition, at bovine serum albumin, the “remained in free form” value is “approximately 50%”.

As to `NCc1ccccc1O` [SA, salicylamine], in data set [3], the “lipophilicity / penetration into nonpolar environments” value is given as “readily dissolve into ethyl acetate; also recorded: most lipophilic scavenger”. The “protection of cellular viability” value in the data set on HepG2 cell was “best protection”. Moreover, in data set [4] (1 g/l in drinking water, 7 days post MI), the “systolic function, fractional LV shortening (FS) by echocardiography” value is listed as “improved systolic function”. For the same compound, the “Lys-lactam protein adducts in infarct and peri-infarct borderzone” value in [4] (7 days after coronary ligation) is on record as “appears to prevent the adduct formation”. Also, the infarct size entry in [4] (hearts harvested 7 days after coronary ligation) is “significantly reduced infarct size”. Further, in [4] (p=0.1), the “survival after MI” value is on record as “trend towards increased survival”. Besides, the “tolerability of the dosing regimen” value in data set [5] (1 g/l in drinking water) is “well tolerated”. The oral bioavailability result in data set [5] (mouse, in vivo, po) was “orally bioavailable”. In data set [6], the “levels of F2-IsoP formed” value is listed as “None of the three scavengers reduced” and the “selectivity for γ KA products over other lipid peroxidation products” value was “relatively selectively”. In addition, the “levels of Lys-lactam adduct formed” value in data set [6] (compared to vehicle) is given as “markedly reduced”. In [7], the “scavenging γ KAs” value was “very good at scavenging”. In addition, the “memory performance (latency, Z-score)” value in [8] is listed as “significantly improved the performance”. Moreover, the “memory performance (latency, Z-score)” value in data set [8] (listed as salicylamine) is reported as “improves memory”.

For the compound `CC1(C)CC(O)CC(C)(C)N1[O]` [Tempol], the “increase in plasma levels of F2-IsoPs” value in [9] was “completely ablated this increase”. Also, the “increase in levels of F2-IsoPs in renal vein plasma” value in [10] is “completely prevented the increase”.

In the data set with 20S proteasome, “IsoK-Aβ1-40: Aβ1-40 adducted with E2-IsoK” returned an IC50 of 1300 nM.

As to vitamin E, the “effect to slow the progression of the disease” value with progression of AD is “modest effect”. For the same compound, in data set [11] (800 I.U./d, 18 weeks), the “reduction of F2-IsoP levels” value is recorded as “about 10%”. The “maximum suppression of plasma F2-IsoPs” value in data set [11] (3200 I.U./d, 18 weeks) amounted to 49%. The “effect on F2-IsoP levels” value in data set [11] (doses below 800 I.U./d, 18 weeks) is recorded as “no significant effect”. Besides, in data set [11] (human, in vivo), the “supplementation required to reach the plateau in maximum suppression of plasma F2-IsoPs” value is on record as “sixteen”.
